Results published in patent US20080033020A1, “3-Pyridinylethylbenzamide Derivatives as Fungicides” (priority 2004, published 2008).

Tests used:
Peronospora parasitica = test: Efficacy against Peronospora parasitica (comparative compound); type: in vivo; conditions: at 330 ppm; comparative compound of WO 01/11965
Botrytis cinerea = test: Effectiveness on Botrytis cinerea (comparative compounds); type: in vivo; conditions: at 330 ppm; comparative compounds of WO 01/11965
Alternaria brassicae = test: In vivo test on Alternaria brassicae (leaf spot of crucifers) on radish plants; conditions: at 330 ppm; comparative compounds of WO 01/11965
Procedure: The active ingredient tested is prepared by potter homogenisation in a concentrated suspension type formulation at 100 g/l. This suspension is then diluted with water to obtain the desired active material concentration.
Radish plants (Pernot variety) in starter cups, sown on a 50/50 peat soil-pozzolana substrate and grown at 18-20° C., are treated at the cotyledon stage by spraying with the aqueous suspension described above.
Plants, used as controls, are treated with an aqueous solution not containing the active material.
After 24 hours, the plants are contaminated by spraying them with an aqueous suspension of Alternaria brassicae spores (40,000 spores per cm^3). The spores are collected from a 12 to 13 days-old culture.
The contaminated radish plants are incubated for 6-7 days at about 18° C., under a humid atmosphere.
Grading is carried out 6 to 7 days after the contamination, in comparison with the control plants.
Under these conditions, good (at least 50%) or total protection is observed at a dose of 330 ppm or 110 ppm with the following compounds: 1, 2, 3, 4, 5, 6, 7, 8, 9, 10 and 11.

SMILES: O=C(Cc1cccs1)NCc1ncc(C(F)(F)F)cc1Cl [compound 101, N-{[3-chloro-5-(trifluoromethyl)-2-pyridinyl]methyl}-5-thienylacetamide]
- efficacy against Peronospora parasitica (Peronospora parasitica): no efficacy
- effectiveness on Botrytis cinerea (Botrytis cinerea): no efficacy
- effectiveness on Alternaria brassicae (Alternaria brassicae): poor efficacy

SMILES: CCNC(=O)C(Cc1ncc(C(F)(F)F)cc1Cl)NC(=O)c1ccccc1 (stereo not drawn) [compound 304, N-{1-ethylcarbamoyl-2-[3-chloro-5-(trifluoromethyl)-2-pyridinyl]-ethyl}-benzamide]
- effectiveness on Botrytis cinerea (Botrytis cinerea): zero effectiveness

SMILES: CCNC(=O)C(Cc1ncc(C(F)(F)F)cc1Cl)NC(=O)c1ccc(Cl)cc1 (stereo not drawn) [compound 306, N-{1-ethylcarbamoyl-2-[3-chloro-5-(trifluoromethyl)-2-pyridinyl]ethyl}-4-chlorobenzamide]
- effectiveness on Botrytis cinerea (Botrytis cinerea): zero effectiveness

SMILES: CCNC(=O)C(Cc1ncc(C(F)(F)F)cc1Cl)NC(=O)c1cccc([N+](=O)[O-])c1 (stereo not drawn) [compound 307, N-{1-ethylcarbamoyl-2-[3-chloro-5-(trifluoromethyl)-2-pyridinyl]ethyl}-3-nitrobenzamide]
- effectiveness on Botrytis cinerea (Botrytis cinerea): zero effectiveness
- effectiveness on Alternaria brassicae (Alternaria brassicae): poor effectiveness

SMILES: CCNC(=O)C(Cc1ncc(C(F)(F)F)cc1Cl)NC(=O)c1ccccc1Br (stereo not drawn) [compound 310, N-{1-ethylcarbamoyl-2-[3-chloro-5-(trifluoromethyl)-2-pyridinyl]ethyl}-2-bromobenzamide]
- effectiveness on Botrytis cinerea (Botrytis cinerea): zero effectiveness

SMILES: CNC(=O)C(Cc1ncc(C(F)(F)F)cc1Cl)NC(=O)c1ccccc1 (stereo not drawn) [compound 314, N-{1-methylcarbamoyl-2-[3-chloro-5-(trifluoromethyl)-2-pyridinyl]ethyl}-benzamide]
- effectiveness on Botrytis cinerea (Botrytis cinerea): zero effectiveness

SMILES: CNC(=O)C(Cc1ncc(C(F)(F)F)cc1Cl)NC(=O)c1ccc(OC)cc1 (stereo not drawn) [compound 315, N-{1-methylcarbamoyl-2-[3-chloro-5-(trifluoromethyl)-2-pyridinyl]ethyl}-4-methoxybenzamide]
- effectiveness on Botrytis cinerea (Botrytis cinerea): zero effectiveness

SMILES: CNC(=O)C(Cc1ncc(C(F)(F)F)cc1Cl)NC(=O)c1ccc(-c2ccccc2)cc1 (stereo not drawn) [compound 316, N-{1-methylcarbamoyl-2-[3-chloro-5-(trifluoromethyl)-2-pyridinyl]-ethyl}-4-phenylbenzamide]
- effectiveness on Botrytis cinerea (Botrytis cinerea): zero effectiveness
- effectiveness on Alternaria brassicae (Alternaria brassicae): poor effectiveness
